From ChEMBL document CHEMBL1201862, “PubChem BioAssay data set” (2004)
Activity calls are given as the source filed them. Cut-off read from the data, not from the text of the source: actives have a measured IC50 and inactives only a lower limit.

Molecular target: Envelope glycoprotein gp160 (Human immunodeficiency virus 1, UniProt Q6QLK5)
Experiment: inhibitors of HIV fusion peptide binding, primary screen, biochemical, uHTS, fluorescence dequenching (AID 1986)

Sequence of Envelope glycoprotein gp160 (Q6QLK5 whole entry, the tested form may be a part): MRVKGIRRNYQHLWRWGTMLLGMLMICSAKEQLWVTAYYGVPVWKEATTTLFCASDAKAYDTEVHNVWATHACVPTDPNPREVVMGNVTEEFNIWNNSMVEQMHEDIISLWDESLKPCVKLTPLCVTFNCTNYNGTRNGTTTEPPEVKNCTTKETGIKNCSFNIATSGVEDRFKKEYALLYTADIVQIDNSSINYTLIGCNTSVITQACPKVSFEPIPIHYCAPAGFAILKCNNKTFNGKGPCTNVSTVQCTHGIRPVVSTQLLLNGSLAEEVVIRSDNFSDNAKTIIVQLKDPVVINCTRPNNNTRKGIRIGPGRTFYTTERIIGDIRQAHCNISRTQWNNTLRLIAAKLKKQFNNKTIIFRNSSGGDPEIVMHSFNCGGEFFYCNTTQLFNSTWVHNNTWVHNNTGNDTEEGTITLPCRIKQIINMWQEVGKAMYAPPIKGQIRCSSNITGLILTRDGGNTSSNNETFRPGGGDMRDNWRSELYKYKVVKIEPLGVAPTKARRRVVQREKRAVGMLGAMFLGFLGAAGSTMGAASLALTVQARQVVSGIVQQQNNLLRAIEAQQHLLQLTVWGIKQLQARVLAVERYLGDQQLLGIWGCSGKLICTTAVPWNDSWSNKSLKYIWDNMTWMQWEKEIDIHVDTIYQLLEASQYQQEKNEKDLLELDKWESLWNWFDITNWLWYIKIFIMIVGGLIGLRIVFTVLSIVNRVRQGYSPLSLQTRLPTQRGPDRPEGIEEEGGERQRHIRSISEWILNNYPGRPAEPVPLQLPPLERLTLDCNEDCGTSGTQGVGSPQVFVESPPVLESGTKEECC

## COc1ccc(C(=O)/C=C/c2cccc(OCc3ccccc3)c2)cc1CSCC(=O)O
  IC50: 29.2 µM (active)
